Source: ChEMBL document CHEMBL1201862, “PubChem BioAssay data set” (2004)
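Method: 48-hour compound exposure of cells in 96-well plates, five concentrations, linear interpolation of endpoints. GI50 is the concentration that inhibits growth by half.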 Active and inactive are the calls of the source. No stated cut-off is given here; in the data, active = GI50 up to about 1.1 µM and inactive = higher.

Tests used:
Test in all cases: NCI anticancer screen, dose series, 48 h
[1] = system: RPMI-8226
[2] = system: MCF7
[3] = system: EKVX
[4] = system: SF-539
[5] = system: SK-OV-3
[6] = system: UO-31
[7] = system: Malme-3M
[8] = system: SF-295
[9] = system: A498
[10] = system: MDA-N
[11] = system: NCI/ADR-RES
[12] = system: OVCAR-4
[13] = system: M14
[14] = system: KM12
[15] = system: BT-549
[16] = system: MDA-MB-435
[17] = system: PC-3
[18] = system: NCI-H23
[19] = system: SK-MEL-2
[20] = system: RXF 393

SMILES | GI50 [1] | GI50 [2] | GI50 [3] | GI50 [4] | GI50 [5] | GI50 [6] | GI50 [7] | GI50 [8] | GI50 [9] | GI50 [10] | GI50 [11] | GI50 [12] | GI50 [13] | GI50 [14] | GI50 [15] | GI50 [16] | GI50 [17] | GI50 [18] | GI50 [19] | GI50 [20]
CN(C)CCNC(=O)c1cccc2c(NC(CCC(N)=O)C(=O)O)c3ccccc3nc12 (configuration not stated) | 9.57 µM (inactive) | 4.55 µM (inactive) | 14.5 µM (inactive) | 5.55 µM (inactive) | 9.95 µM (inactive) | 1.55 µM (inactive) | 5.56 µM (inactive) | 5.64 µM (inactive) | 16.2 µM (inactive) | 8.73 µM (inactive) | 9.98 µM (inactive) | 16.1 µM (inactive) | 7.55 µM (inactive) | 7.78 µM (inactive) | 10.5 µM (inactive) | 6.14 µM (inactive) | 5.43 µM (inactive) | 3.45 µM (inactive) | 11.9 µM (inactive) | –
Cc1ccc(O)c(-c2cc(-c3cccc(Br)c3)c(C#N)c(N)n2)c1 | 11.5 µM (inactive) | 16.3 µM (inactive) | 14.8 µM (inactive) | 29.1 µM (inactive) | 31.9 µM (inactive) | 20.4 µM (inactive) | 23.5 µM (inactive) | 22.9 µM (inactive) | – | 24.1 µM (inactive) | 45.9 µM (inactive) | < 0.01 µM (active) | 31.9 µM (inactive) | 19.2 µM (inactive) | 37.2 µM (inactive) | 16.3 µM (inactive) | 17.7 µM (inactive) | 33.7 µM (inactive) | 20.7 µM (inactive) | 20.8 µM (inactive)
CCOC(=O)C1=c2[nH]c3cccc4cccc(c43)n2C(=O)CC1 | > 100 µM (inactive) | 36.2 µM (inactive) | > 100 µM (inactive) | – | > 100 µM (inactive) | 38.6 µM (inactive) | – | > 100 µM (inactive) | > 100 µM (inactive) | > 100 µM (inactive) | > 100 µM (inactive) | > 100 µM (inactive) | > 100 µM (inactive) | 26 µM (inactive) | > 100 µM (inactive) | > 100 µM (inactive) | 93.8 µM (inactive) | > 100 µM (inactive) | > 100 µM (inactive) | > 100 µM (inactive)
CCOP(=O)(OCC)C(N)c1ccc(Cl)cc1 (configuration not stated) | > 100 µM (inactive) | > 100 µM (inactive) | > 100 µM (inactive) | > 100 µM (inactive) | – | – | > 100 µM (inactive) | – | > 100 µM (inactive) | > 100 µM (inactive) | > 100 µM (inactive) | > 100 µM (inactive) | > 100 µM (inactive) | > 100 µM (inactive) | > 100 µM (inactive) | > 100 µM (inactive) | > 100 µM (inactive) | > 100 µM (inactive) | > 100 µM (inactive) | –
C#Cc1cc(-c2nc3ccccc3s2)ccc1N | 25.4 µM (inactive) | < 0.01 µM (active) | 19.1 µM (inactive) | 32.2 µM (inactive) | 26.4 µM (inactive) | 14.2 µM (inactive) | 24.4 µM (inactive) | 20 µM (inactive) | – | 33 µM (inactive) | 27.7 µM (inactive) | 17.6 µM (inactive) | 17.6 µM (inactive) | 18.9 µM (inactive) | 20 µM (inactive) | 19.5 µM (inactive) | 24.9 µM (inactive) | 16.5 µM (inactive) | 16.7 µM (inactive) | 25.8 µM (inactive)
COc1cccc2c1OC1c3ccccc3OCC1(O)C2 (configuration not stated) | > 100 µM (inactive) | > 100 µM (inactive) | > 100 µM (inactive) | > 100 µM (inactive) | > 100 µM (inactive) | > 100 µM (inactive) | > 100 µM (inactive) | > 100 µM (inactive) | > 100 µM (inactive) | > 100 µM (inactive) | > 100 µM (inactive) | > 100 µM (inactive) | > 100 µM (inactive) | > 100 µM (inactive) | > 100 µM (inactive) | > 100 µM (inactive) | > 100 µM (inactive) | > 100 µM (inactive) | > 100 µM (inactive) | –
COP(=O)(/C=C/c1cc(C(=O)OCc2ccccc2)n(S(=O)(=O)c2ccccc2)c1)OC | – | > 100 µM (inactive) | > 100 µM (inactive) | > 100 µM (inactive) | > 100 µM (inactive) | > 100 µM (inactive) | > 100 µM (inactive) | > 100 µM (inactive) | > 100 µM (inactive) | > 100 µM (inactive) | > 100 µM (inactive) | > 100 µM (inactive) | > 100 µM (inactive) | > 100 µM (inactive) | > 100 µM (inactive) | > 100 µM (inactive) | > 100 µM (inactive) | > 100 µM (inactive) | > 100 µM (inactive) | > 100 µM (inactive)
CC1Cc2c(cc(N)nc2Br)NC1=O (configuration not stated) | > 100 µM (inactive) | > 100 µM (inactive) | 11 µM (inactive) | > 100 µM (inactive) | > 100 µM (inactive) | > 100 µM (inactive) | > 100 µM (inactive) | > 100 µM (inactive) | – | 46.1 µM (inactive) | > 100 µM (inactive) | > 100 µM (inactive) | > 100 µM (inactive) | > 100 µM (inactive) | 92.9 µM (inactive) | 62.4 µM (inactive) | > 100 µM (inactive) | > 100 µM (inactive) | > 100 µM (inactive) | 81.8 µM (inactive)
CCCCCCCSCC(O)COC(c1ccccc1)(c1ccccc1)c1ccccc1 (configuration not stated) | 17.5 µM (inactive) | 40.1 µM (inactive) | 53 µM (inactive) | > 100 µM (inactive) | > 100 µM (inactive) | 5.81 µM (inactive) | 60 µM (inactive) | 35.3 µM (inactive) | > 100 µM (inactive) | 40.9 µM (inactive) | 72.1 µM (inactive) | 49.9 µM (inactive) | 61.7 µM (inactive) | 0.051 µM (active) | 73.1 µM (inactive) | 56.4 µM (inactive) | 29.3 µM (inactive) | 14.8 µM (inactive) | 18.3 µM (inactive) | –
CN(C(=O)C1(C(=O)C=[N+]=[N-])CC1)c1ccccc1 | > 100 µM (inactive) | > 100 µM (inactive) | > 100 µM (inactive) | > 100 µM (inactive) | – | > 100 µM (inactive) | > 100 µM (inactive) | > 100 µM (inactive) | – | > 100 µM (inactive) | > 100 µM (inactive) | – | > 100 µM (inactive) | > 100 µM (inactive) | > 100 µM (inactive) | > 100 µM (inactive) | > 100 µM (inactive) | > 100 µM (inactive) | > 100 µM (inactive) | > 100 µM (inactive)
CN1B(c2ccccc2)N(C)C(=O)N(C)C1=O | > 100 µM (inactive) | > 100 µM (inactive) | > 100 µM (inactive) | > 100 µM (inactive) | > 100 µM (inactive) | 20.5 µM (inactive) | > 100 µM (inactive) | > 100 µM (inactive) | – | > 100 µM (inactive) | > 100 µM (inactive) | – | > 100 µM (inactive) | > 100 µM (inactive) | > 100 µM (inactive) | > 100 µM (inactive) | > 100 µM (inactive) | > 100 µM (inactive) | > 100 µM (inactive) | > 100 µM (inactive)
COc1ccc(N2C(=O)C3c4[nH]c5ccc(OC)cc5c4C4CCC(C(C)C)CC4C3C2=O)cc1 (configuration not stated) | > 100 µM (inactive) | > 100 µM (inactive) | > 93.3 µM (inactive) | – | 36.9 µM (inactive) | > 100 µM (inactive) | – | 31.2 µM (inactive) | 28 µM (inactive) | > 100 µM (inactive) | > 100 µM (inactive) | > 55.1 µM (inactive) | 34.1 µM (inactive) | > 100 µM (inactive) | > 100 µM (inactive) | > 100 µM (inactive) | > 100 µM (inactive) | > 100 µM (inactive) | > 59.4 µM (inactive) | 31 µM (inactive)
O=C1CC2(CCC(O)(c3cccs3)C(C(=O)c3cccs3)C2)C(=O)c2ccccc2N1 (configuration not stated) | – | 77.4 µM (inactive) | > 100 µM (inactive) | > 100 µM (inactive) | > 100 µM (inactive) | > 100 µM (inactive) | > 100 µM (inactive) | > 100 µM (inactive) | > 100 µM (inactive) | > 100 µM (inactive) | 67.1 µM (inactive) | – | > 100 µM (inactive) | – | > 100 µM (inactive) | > 100 µM (inactive) | 51.8 µM (inactive) | > 100 µM (inactive) | > 100 µM (inactive) | > 100 µM (inactive)
O=C(Cc1nc2ccc([N+](=O)[O-])cc2nc1O)C(=O)Nc1cc(Cl)c(Cl)cc1Cl | – | > 100 µM (inactive) | 54.3 µM (inactive) | > 100 µM (inactive) | 71.3 µM (inactive) | > 100 µM (inactive) | > 100 µM (inactive) | > 100 µM (inactive) | > 100 µM (inactive) | > 100 µM (inactive) | > 100 µM (inactive) | > 100 µM (inactive) | > 100 µM (inactive) | 65.6 µM (inactive) | > 100 µM (inactive) | > 100 µM (inactive) | > 100 µM (inactive) | > 100 µM (inactive) | > 100 µM (inactive) | > 100 µM (inactive)
O=C(C[C@H](NC(=O)OCc1ccccc1)C(=O)NC1Cc2ccccc2OC1=O)OCc1ccccc1 (some centres not stated) | > 100 µM (inactive) | 19.4 µM (inactive) | – | – | > 100 µM (inactive) | > 100 µM (inactive) | > 100 µM (inactive) | – | > 100 µM (inactive) | > 100 µM (inactive) | > 100 µM (inactive) | – | > 100 µM (inactive) | > 100 µM (inactive) | > 100 µM (inactive) | > 100 µM (inactive) | 21.8 µM (inactive) | > 100 µM (inactive) | > 100 µM (inactive) | > 100 µM (inactive)
